Laboratory results taken from PMC8929364, “Metopimazine is primarily metabolized by a liver amidase in humans” (Pharmacology Research & Perspectives, 2021).
“And” between values parts separate entries of the source, which are not always exact repeats. Identical values can stand only once.

Assays:
microsomal CYP enzymes = assay: HLM incubation of MPZ with CYP inhibitors; settings: HLM 0.5 mg/ml, 60 min; for effect of inhibitor on MPZH formation from MPZ (peak area ratio, qualitative) / effect of inhibitor on MPZS formation from MPZ: 1 mM ABT; for effect of inhibitor on MPZH formation from MPZ (peak area ratio, qualitative): quinidine 1 µM; for effect of inhibitor on MPZS formation from MPZ: itraconazole 2.5 µM
Procedure: Initially, two sets of incubations were conducted with HLM (0.5 mg/ml microsomal protein), 1 and 10 μM MPZ, 100 mM KPi buffer (pH 7.4) where one set was in the presence and the other set was in the absence of 1 mM ABT, a non‐specific CYP inhibitor for 60 min. This allowed the assessment of total CYP contribution for MPZ metabolism. Then, CYP‐specific chemical inhibitors were used to assess the contribution of individual major CYP‐isoforms where HLM were incubated with 1 or 10 μM MPZ in the presence and in the absence of each CYP specific inhibitor at 37°C for 60 min. […] Parallel incubation with seven CYP specific probe substrates (phenacetin for CYP1A2, bupropion for CYP2B6, paclitaxel for CYP2C8, diclofenac for CYP2C9, S‐mephenytoin for CYP2C19, dextromethorphan for CYP2D6 and midazolam for CYP3A4/5) were included in as positive controls. For negative control reaction, MPZ was incubated at 37°C in duplicate in a reaction mixture devoid of NADPH. All other procedures were the same as described previously.
LC separation conditions were developed for MPZ and its metabolites (MPZA and MPZS), 7‐hydroxycoumarin, each metabolite of CYP probe substrate, benzydamine N‐oxide, and phthalazine. The LC–MS/MS system consisted of a Shimadzu Nexera X2 LC‐30 UPLC system (Shimadzu Corporation), and an API 4000 triple quadrupole mass spectrometer (SCIEX) was used for analysis. All analytes were analyzed using electrospray ionization (ESI) in positive ion mode except for 7‐EC, which used negative ion mode. The LC–MS/MS system was controlled by Analyst software (version 1.6.1, SCIEX).
For each analytical method, a calibration curve was generated for the quantification of MPZ and its two metabolites (MPZA and MPZS). […] PAR was also used for all positive control compounds.

microsomal FMOs = assay: Incubation of MPZ with HLM for FMO, with and without methimazole; type: in vitro ADME, human; settings: 1 mM methimazole, pH 8.4, NADPH, 60 min
Procedure: MPZ, at 1.0 and 10.0 µM, was incubated with HLM or HKM to determine the contribution of microsomal FMOs on the metabolism of MPZ.
A reaction mixture containing KPi buffer (pH 8.4), HLM or HKM (0.5 mg/ml protein) and MPZ (1.0 and 10.0 µM) was pre‐incubated for 3–5 min at 37°C. The reaction was initiated by the addition of NADPH into the reaction mixture. The reaction was conducted for 0 and 60 min. A positive control (benzydamine, 100 µM) was incubated in duplicate for 0 and 20 min. Parallel incubation was conducted by adding 1 mM methimazole, a non‐specific FMO inhibitor, under identical conditions. Heat‐inactivated microsomes (50°C for at least 5 min) was incubated under identical conditions negative control. All other procedures were the same as described previously.

[1] = test system: human liver microsomal amidase; assay: Incubations with heat-treated HLM for microsomal hydrolase/amidase activity, with and without BNPP; type: in vitro ADME; settings: 10 µM MPZ, HLM, 60 min
Procedure: Prior to the reaction for amidase activity, the reaction mixture containing KPi buffer (pH 7.4, 8.4, or 9.4) and HLM was pre‐incubated at 50°C for 5 min to inactivate CYP and FMO activities in HLM. The mixture was placed on ice to cool down. An aliquot was taken out which was considered as t = 0 min incubation. Then 10 µM MPZ was added into the remaining mixture and incubated at 37°C on an orbital shaker for 60 min. A parallel set of incubations was conducted with 10 µM MPZ in the presence at 2 and 16 µM, of BNPP (a known inhibitor of amidase). All reactions were in triplicate. The total percentage of organic solvent in the incubation mixture was ≤0.1%. The reactions were terminated by the addition of chilled acetonitrile: methanol, 90:10, (v/v). The samples were vortex‐mixed and stored at ≤−70°C and were subjected analyzed by LC–MS/MS.

CYP3A5 = molecular target: T1, CYP3A5 (Homo sapiens, UniProt P20815); assay: Incubation of MPZ with recombinant CYP isoforms: CYP3A5; type: in vitro ADME; settings: 1 µM MPZ, 60 min
T1 construct: purchased Corning Inc
T1 sequence (P20815 whole entry, canonical isoform): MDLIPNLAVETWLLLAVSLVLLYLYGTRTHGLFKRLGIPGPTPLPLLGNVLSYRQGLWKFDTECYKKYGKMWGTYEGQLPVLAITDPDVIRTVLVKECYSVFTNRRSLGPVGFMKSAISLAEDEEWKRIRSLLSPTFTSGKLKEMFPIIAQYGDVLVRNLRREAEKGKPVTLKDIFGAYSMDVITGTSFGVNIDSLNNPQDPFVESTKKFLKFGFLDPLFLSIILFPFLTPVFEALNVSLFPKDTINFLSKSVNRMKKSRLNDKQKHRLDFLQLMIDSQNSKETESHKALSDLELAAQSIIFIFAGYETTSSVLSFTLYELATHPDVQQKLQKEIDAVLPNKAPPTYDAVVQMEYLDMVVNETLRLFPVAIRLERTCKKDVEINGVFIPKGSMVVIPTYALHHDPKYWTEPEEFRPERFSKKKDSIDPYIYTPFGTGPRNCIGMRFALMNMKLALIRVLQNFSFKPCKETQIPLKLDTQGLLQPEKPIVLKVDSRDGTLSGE
Description: (§1) All other procedures were the same as described previously.

CYP3A4 = molecular target: T2, CYP3A4 (Homo sapiens, UniProt P08684); assay: Incubation of MPZ with recombinant CYP isoforms: CYP3A4; type: in vitro ADME; settings: 1 µM MPZ, 60 min
T2 construct: purchased Corning Inc
T2 sequence (P08684 whole entry, canonical isoform): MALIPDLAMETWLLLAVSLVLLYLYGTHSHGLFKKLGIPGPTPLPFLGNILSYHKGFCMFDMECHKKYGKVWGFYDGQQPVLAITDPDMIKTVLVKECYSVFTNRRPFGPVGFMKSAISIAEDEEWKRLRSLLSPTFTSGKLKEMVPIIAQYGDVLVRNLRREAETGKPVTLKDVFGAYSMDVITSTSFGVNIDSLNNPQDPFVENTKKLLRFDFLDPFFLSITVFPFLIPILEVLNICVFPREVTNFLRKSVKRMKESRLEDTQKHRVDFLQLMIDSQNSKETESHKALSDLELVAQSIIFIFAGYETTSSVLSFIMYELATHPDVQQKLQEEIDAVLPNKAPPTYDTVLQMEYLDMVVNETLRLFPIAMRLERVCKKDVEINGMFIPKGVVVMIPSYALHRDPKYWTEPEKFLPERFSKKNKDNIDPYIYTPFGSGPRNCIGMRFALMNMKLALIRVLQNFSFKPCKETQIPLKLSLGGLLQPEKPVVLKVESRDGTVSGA
Description: as §1

[2] = Incubation of MPZ with pooled human liver microsomes (disappearance, metabolite formation); type: in vitro ADME; settings: metopimazine incubation in human liver microsomes, full scan LC–MS
Procedure: To conduct the metabolic incubation in liver microsomes in the linear range, protein concentration and the reaction time were optimized.
PAR was also used for all positive control compounds.
The degree of disappearance of each analyte was evaluated by comparing the PAR of analyte to IS or concentration in different sampling time points to the PAR of time zero, (t = 0, 100%). The percent of parent remaining values were calculated according to the following equation: %parentremaining=(meanconcentrationorPARateachsamplingtimepoint/meanconcentrationorPARoftimezero)×100

[3] = Clinical study NG100-101: plasma pharmacokinetics of metopimazine and metabolites after a single oral 60 mg dose; type: in vivo, healthy adult subjects (human); settings: for % Drug‐related material MPZS: based on AUClast
Procedure: The clinical study was conducted at Biotrial Rennes, in accordance with the Declaration of Helsinki. The study (NG100‐101) was a double‐blind, placebo‐ controlled, ascending single‐ and multiple‐dose study of the safety, tolerability, and pharmacokinetics of metopimazine administered orally to healthy adult subjects. The study protocol, informed consent form, and appropriate related documents were approved by the institutional review board, and all subjects provided written informed consent prior to participation in the study. […] In the morning, after at least 10 h of fasting overnight, eight healthy adult subjects (male or female aged 18 to 45), were orally administered metopimazine (or a matching placebo). […] Blood samples were collected at the following time points: predose and 0.25, 0.5, 0.75, 1, 1.25, 1.5, 2, 3, 4, 6, 8, 12, 18, and 24 h postdose; plasma samples were obtained by centrifugation of the blood samples. A comprehensive safety and pharmacokinetic analysis was performed for each cohort for the SAD and MAD parts of the study and will be presented elsewhere. A fit‐for‐purpose discovery method was used to analyze 4 subjects from the highest single dosed cohort for the presence of metabolites. Plasma concentrations of metopimazine, metopimazine acid and metopimazine sulfoxide were quantified using LC–MS/MS methods. Venous blood samples (6 ml) for the determination of plasma concentrations of MPZ and metabolites (MPZA and MPZS) were drawn by direct venipuncture or via an intravenous catheter into K2EDTA Vacutainer® tubes. It was important to avoid hemolysis during blood collection. After collection, the blood samples were centrifuged within 60 min, at 3000 rotations per minute for 10 min at 5°C. The resulting plasma was separated into 2 equal aliquots of 1000 µl (aliquots A & B) and transferred to polypropylene tubes, which were labeled, frozen within 120 min of blood collection and stored at –70°C until required for bioanalysis. Immediately prior to bioanalysis, samples were thawed and a 200 µl aliquots were removed and analytes extracted using acetonitrile protein precipitation. The extracted samples were analyzed twice, once for quantification of MPZ and MPZA and again for MPZS quantification as described below. An MRM LC–MS/MS method was developed for MPZ and metopimazine acid (MPZA) in rat, dog, and human plasma. The method was run in reverse phase in positive ion mode. […] D6‐isotopically labeled internal standards were used for each analyte. The following m/z transitions were monitored: metopimazine 446.3 → 141.1 and metopimazine acid 447.2 → 142.1. […] An MRM LC–MS/MS method was developed to look for metopimazine sulfoxide (MPZS) in human plasma. The method was run in reverse phase in positive ion mode. The system was identical to what was described above except that a slightly longer column was used, a Supelco Discovery HS F5 100 × 4.0 mm (3 µm) column (Sigma‐Aldrich). A D6‐isotopically labeled internal standards was used for MPS and the m/z transition monitored was 462.3 → 98.1. A calibration curve was generated for the quantification of MPZS in human plasma. Noncompartmental Pharmacokinetics analysis was performed in Phoenix 64 Winnonlin version 8.1.

[4] = 4 subjects, single oral 60 mg MPZ dose
[5] = plasma, individual subjects, single oral 60 mg MPZ dose

Which “effect of inhibitor on MPZH formation from MPZ (peak area ratio, qualitative)” value (microsomal CYP enzymes) does the source give for C=C[C@H]1C[N@@]2CC[C@H]1C[C@@H]2[C@@H](O)c1ccnc2ccc(OC)cc12 [quinidine] here?
The value was “inhibited”.

For Cn1cc[nH]c1=S [methimazole], which “effect of FMO inhibitor on MPZA formation in HLM” value (microsomal FMOs) is on record?
Its value is “not inhibited”.

Which results are given for O=[N+]([O-])c1ccc(OP(=O)(O)Oc2ccc([N+](=O)[O-])cc2)cc1 [BNPP, bis‐p‐nitrophenyl phosphate]?
inhibition of MPZA formation ([1]; 2 μM BNPP, even at the highest pH): at least 97%; inhibition of MPZA formation ([1]; 16 μM BNPP, all three pH values (7.4, 8.4, 9.4)): > 99%

Which results are given for Nn1nnc2ccccc21 [1‐ABT, 1‐aminobenzotriazole]?
effect of inhibitor on MPZA formation from MPZ (microsomal CYP enzymes; 1 mM ABT or CYP-isoform specific inhibitors): no effect on MPZA; effect of inhibitor on MPZS formation from MPZ (microsomal CYP enzymes): inhibited the formation of MPZS; effect of inhibitor on MPZH formation from MPZ (peak area ratio, qualitative) (microsomal CYP enzymes): inhibited

For CCC(C)n1ncn(-c2ccc(N3CCN(c4ccc(OCC5COC(Cn6cncn6)(c6ccc(Cl)cc6Cl)O5)cc4)CC3)cc2)c1=O (stereo not shown) [itraconazole], which “effect of inhibitor on MPZS formation from MPZ” value (microsomal CYP enzymes) is on record?
The value was “clearly inhibited”.

For CS(=O)(=O)c1ccc2c(c1)N(CCCN1CCC(C(N)=O)CC1)c1ccccc1[S+]2[O-] (stereo not shown) [MPZS, metopimazine sulfoxide], which “metabolite formation by recombinant CYP3A5” value (CYP3A5) is on record?
The value was “not CYP3A5”.

What about the “metabolite formation by recombinant CYP3A4” value (CYP3A4) of the same compound?
Its value is “mainly produced by CYP3A4”.

And the “Peak area at time 0” value [2]?
Its value is 0.

What about the “Peak area at time 90 min” value [2] of the same compound?
Its value is 59.

What about the “quantifiability in plasma at late time points” value [3, 4] of the same compound?
Its value is “not quantifiable by 12 h”.

And the “time of first appearance in plasma” value [3, 4]?
The value was 30 to 45 min.

And the “% Drug‐related material MPZS” value ([3]; individual subjects, single 60 mg dose)?
Its value is 0.4% and 0.9% and 0.5% and 0.8%.

And the “% Drug‐related material MPZS” value ([3]; mean of 4 subjects, single 60 mg dose)?
Its value is 0.7%.

And the AUC(0-t) ([3]; both sexes, human, plasma, po, 60 mg, plasma, mean of 4 subjects, single oral 60 mg MPZ dose, read-out: MPZS AUClast)?
Its AUC(0-t) is 15.8 ng·h/mL.

And the Cmax ([3]; both sexes, human, plasma, po, 60 mg, plasma, mean of 4 subjects, single oral 60 mg MPZ dose, read-out: MPZS C max)?
Its Cmax is 4.9 ng/mL.

What about the “MPZS AUClast” value [3, 5] of the same compound?
The value was 7.6 ng‐h/ml and 25.5 ng‐h/ml and 10.0 ng‐h/ml and 20.1 ng‐h/ml.

And the “MPZS C max” value [3, 5]?
Its value is 1.6 ng/mL and 10.2 ng/mL and 3.1 ng/mL and 4.6 ng/mL.

What about the “MPZS T max” value [3, 5] of the same compound?
Its value is 4 h and 1.25 h and 1 h.

And the “percent of total circulating drug‐related material” value ([3]; rough estimate based on AUClast, single 60 mg dose)?
Its value is “less than 1%”.
